Test results from patent publication EP2951180B1, “2,6,7,8 SUBSTITUTED PURINES AS HDM2 INHIBITORS” (Merck Sharp & Dohme Corp., priority 2013, dated 2014).

Target: T1, HDM2 (Homo sapiens, UniProt Q00987)
T1 construct: Thioredoxin (N); made in house; host or cells: E. coli strain BL21(DE3)Rosetta
Experiment: FRET assay (HDM2 inhibition; method not described in this part)
Assay type: binding
Conditions: Table 1

T1 sequence (Q00987 17-125): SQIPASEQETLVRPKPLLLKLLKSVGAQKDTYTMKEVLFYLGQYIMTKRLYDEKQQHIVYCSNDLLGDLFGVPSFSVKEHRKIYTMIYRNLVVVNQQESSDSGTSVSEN

Q: With `Cc1c(-c2nc3nc(C(=O)O)nc(N[C@H](C)C4CCC4)c3n2Cc2ccc(C(F)(F)F)cc2)cnn1C` [Example 1.95, 6-{[(1R)-1-cyclobutylethyl]amino}-8-(1,5-dimethyl-1H-pyrazol-4-yl)-7-[4-(trifluoromethyl)benzyl]-7H-purine-2-carboxylic acid] as the compound, how does the IC50 read?
A: 138 nM

Q: Which IC50 does the source give for `C[C@@H](Nc1nc(C(=O)O)nc2nc(-c3ccccc3)n(Cc3ccc(C(F)(F)F)cc3)c12)C1CC1` [Example 1.96, 6-{[(1R)-1-cyclopropylethyl]amino} -8-phenyl-7-[4-(trifluoromethyl)benzyl]-7H-purine-2-carboxylic acid] here?
A: 371 nM

Q: For `C[C@@H](Nc1nc(C(=O)O)nc2nc(-c3ccc(N4CCOCC4)cc3)n(Cc3ccc(C(F)(F)F)cc3)c12)C1CC1` [Example 1.97, 6-{[(1R)-1-cyclopropylethyl]amino} -8-(4-morpholin-4-ylphenyl)-7-[4-(trifluoromethyl)benzyl]-7H-purine-2-carboxylic acid], which IC50 is on record?
A: 1540 nM

Q: `CC(C)Oc1cccc(-c2nc3nc(C(=O)O)nc(N[C@H](C)C4CC4)c3n2Cc2ccc(C(F)(F)F)cc2)c1` [Example 1.98, 6-{[(1R)-1-cyclopropylethyl]amino} -8-[3-(1-methylethoxy)phenyl]-7-[4-(trifluoromethyl)benzyl]-7H-purine-2-carboxylic acid] was tested. Which IC50 did it give?
A: 316 nM

Q: For `Cc1ccc(C)c(-c2nc3nc(C(=O)O)nc(N[C@H](C)C4CCC4)c3n2Cc2ccc(C(F)(F)F)cc2)c1` [Example 1.99, 6-{[(1R)-1-cyclobutylethyl]amino}-8-(2,5-dimethylphenyl)-7-[4-(trifluoromethyl)benzyl]-7H-purine-2-carboxylic acid], which IC50 is on record?
A: 14.9 nM

Q: `C[C@@H](Nc1nc(C(=O)O)nc2nc(-c3ccc(OC(F)F)cc3)n(Cc3ccc(C(F)(F)F)cc3)c12)C1CCC1` [Example 1.100, 6-{[(1R)-1-cyclobutylethyl]amino}-8-[4-(difluoromethoxy)phenyl]-7-[4-(trifluoromethyl)benzyl]-7H-purine-2-carboxylic acid] was tested. Which IC50 did it give?
A: 51.8 nM

Q: For `CC(O)c1ccc(-c2nc3nc(C(=O)O)nc(N[C@H](C)C4CCC4)c3n2Cc2ccc(C(F)(F)F)cc2)cc1` (stereo partly drawn) [Example 1.101, 6-{[(1R)-1-cyclobutylethyl]amino}-8-[4-(1-hydroxyethyl)phenyl]-7-[4-(trifluoromethyl)benzyl]-7H-purine-2-carboxylic acid], which IC50 is on record?
A: 34.2 nM

Q: How did the IC50 turn out when `Cc1ccc(-c2nc3nc(C(=O)O)nc(N[C@H](C)C4CCC4)c3n2Cc2ccc(C(F)(F)F)cc2)cc1F` [Example 1.102, 6-{[(1R)-1-cyclobutylethyl]amino}-8-(3-fluoro-4-methylphenyl)-7-[4-(trifluoromethyl)benzyl]-7H-purine-2-carboxylic acid] was run?
A: 20.3 nM

Q: `Cc1ccc(F)cc1-c1nc2nc(C(=O)O)nc(N[C@H](C)C3CCC3)c2n1Cc1ccc(C(F)(F)F)cc1` [Example 1.103, 6-{[(1R)-1-cyclobutylethyl]amino}-8-(5-fluoro-2-methylphenyl)-7-[4-(trifluoromethyl)benzyl]-7H-purine-2-carboxylic acid] was tested. Which IC50 did it give?
A: 10.8 nM

Q: How did the IC50 turn out when `COc1ccc(-c2nc3nc(C(=O)O)nc(N[C@H](C)C4CCC4)c3n2Cc2ccc(C(F)(F)F)cc2)cc1F` [Example 1.104, 6-{[(1R)-1-cyclobutylethyl]amino}-8-(3-fluoro-4-methoxyphenyl)-7-[4-(trifluoromethyl)benzyl]-7H-purine-2-carboxylic acid] was run?
A: 17.4 nM

Q: For `COc1ccc(-c2nc3nc(C(=O)O)nc(N[C@H](C)C4CCC4)c3n2Cc2ccc(C(F)(F)F)cc2)cc1C` [Example 1.105, 6-{[(1R)-1-cyclobutylethyl]amino}-8-(4-methoxy-3-methylphenyl)-7-[4-(trifluoromethyl)benzyl]-7H-purine-2-carboxylic acid], which IC50 is on record?
A: 16.5 nM

Q: With `C[C@@H](Nc1nc(C(=O)O)nc2nc(-c3ccc4nccnc4c3)n(Cc3ccc(C(F)(F)F)cc3)c12)C1CCC1` [Example 1.106, 6-{[(1R)-1-cyclobutylethyl]amino}-8-quinoxalin-6-yl-7-[4-(trifluoromethyl)benzyl]-7H-purine-2-carboxylic acid] as the compound, how does the IC50 read?
A: 23.5 nM

Q: With `C[C@@H](Nc1nc(C(=O)O)nc2nc(-c3cccc(-n4cccc4)c3)n(Cc3ccc(C(F)(F)F)cc3)c12)C1CCC1` [Example 1.107, 6-{[(1R)-1-cyclobutylethyl]amino}-8-[3-(1H-pyrrol-1-yl)phenyl]-7-[4-(trifluoromethyl)benzyl]-7H-purine-2-carboxylic acid] as the compound, how does the IC50 read?
A: 34.8 nM

Q: For `C[C@@H](Nc1nc(C(=O)O)nc2nc(-c3ccc4c(ccn4C)c3)n(Cc3ccc(C(F)(F)F)cc3)c12)C1CCC1` [Example 1.108, 6-{[(1R)-1-cyclobutylethyl]amino}-8-(1-methyl-1H-indol-5-yl)-7-[4-(trifluoromethyl)benzyl]-7H-purine-2-carboxylic acid], which IC50 is on record?
A: 60.9 nM

Q: For `C[C@@H](Nc1nc(C(=O)O)nc2nc(-c3ccc(-c4ccccc4)cc3)n(Cc3ccc(C(F)(F)F)cc3)c12)C1CCC1` [Example 1.109, 8-biphenyl-4-yl-6-{[(1R)-1-cyclobutylethyl]amino}-7-[4-(trifluoromethyl)benzyl]-7H-purine-2-carboxylic acid], which IC50 is on record?
A: 473 nM

Q: With `C[C@@H](Nc1nc(C(=O)O)nc2nc(-c3ccc(C4CCCCC4)cc3)n(Cc3ccc(C(F)(F)F)cc3)c12)C1CCC1` [Example 1.110, 6-{[(1R)-1-cyclobutylethyl]amino}-8-(4-cyclohexylphenyl)-7-[4-(trifluoromethyl)benzyl]-7H-purine-2-carboxylic acid] as the compound, how does the IC50 read?
A: 3700 nM

Q: For `Cc1ccc2cc(-c3nc4nc(C(=O)O)nc(N[C@H](C)C5CCC5)c4n3Cc3ccc(C(F)(F)F)cc3)ccc2n1` [Example 1.111, 6-{[(1R)-1-cyclobutylethyl]amino}-8-(2-methylquinolin-6-yl)-7-[4-(trifluoromethyl)benzyl]-7H-purine-2-carboxylic acid], which IC50 is on record?
A: 128 nM

Q: `C[C@@H](Nc1nc(C(=O)O)nc2nc(-c3ccc(-c4ccccc4)c(F)c3)n(Cc3ccc(C(F)(F)F)cc3)c12)C1CCC1` [Example 1.112, 6-{[(1R)-1-cyclobutylethyl]amino}-8-(2-fluorobiphenyl-4-yl)-7-[4-(trifluoromethyl)benzyl]-7H-purine-2-carboxylic acid] was tested. Which IC50 did it give?
A: 344 nM

Q: How did the IC50 turn out when `C[C@@H](Nc1nc(C(=O)O)nc2nc(-c3ccc(N(C)C)cc3)n(Cc3ccc(C(F)(F)F)cc3)c12)C1CCC1` [Example 1.113, 6-{[(1R)-1-cyclobutylethyl]amino}-8-[4-(dimethylamino)phenyl]-7-[4-(trifluoromethyl)benzyl]-7H-purine-2-carboxylic acid] was run?
A: 716 nM

Q: `C[C@@H](Nc1nc(C(=O)O)nc2nc(-c3ccc(C(C)(C)C)cc3)n(Cc3ccc(C(F)(F)F)cc3)c12)C1CCC1` [Example 1.114, 8-(4-tert-butylphenyl)-6-{[(1R)-1-cyclobutylethyl]amino}-7-[4-(trifluoromethyl)benzyl]-7H-purine-2-carboxylic acid] was tested. Which IC50 did it give?
A: 393 nM

Q: Which IC50 does the source give for `C[C@@H](Nc1nc(C(=O)O)nc2nc(-c3ccc(Cl)c(C(F)(F)F)c3)n(Cc3ccc(C(F)(F)F)cc3)c12)C1CCC1` [Example 1.115, 8-[4-chloro-3-(trifluoromethyl)phenyl]-6-{[(1R)-1-cyclobutylethyl]amino}-7-[4-(trifluoromethyl)benzyl]-7H-purine-2-carboxylic acid] here?
A: 17.3 nM

Q: `C[C@@H](Nc1nc(C(=O)O)nc2nc(-c3ccc(C(=O)C4CC4)cc3)n(Cc3ccc(C(F)(F)F)cc3)c12)C1CCC1` [Example 1.116, 6-{[(1R)-1-cyclobutylethyl]amino}-8-[4-(cyclopropylcarbonyl)phenyl]-7-[4-(trifluoromethyl)benzyl] - 7H-purine-2-carboxylic acid] was tested. Which IC50 did it give?
A: 66.3 nM

Q: Which IC50 does the source give for `C[C@@H](Nc1nc(C(=O)O)nc2nc(-c3ccc4occc4c3)n(Cc3ccc(C(F)(F)F)cc3)c12)C1CCC1` [Example 1.117, 8-(1-benzofuran-5-yl)-6-{[(1R)-1-cyclobutylethyl]amino}-7-[4-(trifluoromethyl)benzyl]-7H-purine-2-carboxylic acid] here?
A: 16.7 nM

Q: With `Cc1cc(-c2nc3nc(C(=O)O)nc(N[C@H](C)C4CC4)c3n2Cc2ccc(C(F)(F)F)cc2)ccn1` [Example 1.118, 6-{[(1R)-1-cyclopropylethyl]amino} -8-(2-methylpyridin-4-yl)-7-[4-(trifluoromethyl)benzyl]-7H-purine-2-carboxylic acid] as the compound, how does the IC50 read?
A: 1370 nM

Q: How did the IC50 turn out when `COc1ccc(C)cc1-c1nc2nc(C(=O)O)nc(N[C@H](C)C3CCC3)c2n1Cc1ccc(C(F)(F)F)cc1` [Example 1.119, 6-{[(1R)-1-cyclobutylethyl]amino}-8-(2-methoxy-5-methylphenyl)-7-[4-(trifluoromethyl)benzyl]-7H-purine-2-carboxylic acid] was run?
A: 9.97 nM

Q: How did the IC50 turn out when `Cc1ccc(Cl)c(-c2nc3nc(C(=O)O)nc(N[C@H](C)C4CCC4)c3n2Cc2ccc(C(F)(F)F)cc2)c1` [Example 1.120, 8-(2-chloro-5-methylphenyl)-6-{[(1R)-1-cyclobutylethyl]amino}-7-[4-(trifluoromethyl)benzyl] - 7H-purine-2-carboxylic acid] was run?
A: 10.4 nM

Q: For `C[C@@H](Nc1nc(C(=O)O)nc2nc(-c3ccc4c(c3)CCO4)n(Cc3ccc(C(F)(F)F)cc3)c12)C1CCC1` [Example 1.121, 6-{[(1R)-1-cyclobutylethyl]amino}-8-(2,3-dihydro-1-benzofuran-5-yl)-7-[4-(trifluoromethyl)benzyl]-7H-purine-2-carboxylic acid], which IC50 is on record?
A: 7.81 nM

Q: `C[C@@H](Nc1nc(C(=O)O)nc2nc(-c3cccc(C(F)(F)F)n3)n(Cc3ccc(C(F)(F)F)cc3)c12)C1CCC1` [Example 1.122, 6-{[(1R)-1-cyclobutylethyl]amino}-7-[4-(trifluoromethyl)benzyl]-8-[6-(trifluoromethyl)pyridin-2-yl]-7H-purine-2-carboxylic acid] was tested. Which IC50 did it give?
A: 21.2 nM

Q: With `COc1cc(C)cc(-c2nc3nc(C(=O)O)nc(N[C@H](C)C4CCC4)c3n2Cc2ccc(C(F)(F)F)cc2)c1` [Example 1.123, 6-{[(1R)-1-cyclobutylethyl]amino}-8-(3-methoxy-5-methylphenyl)-7-[4-(trifluoromethyl)benzyl]-7H-purine-2-carboxylic acid] as the compound, how does the IC50 read?
A: 53.6 nM
